Data published in article PMC11252475 (Acta Pharmaceutica Sinica. B, 2024).

Biological target: NaV1.5 (Homo sapiens, UniProt Q14524)
Assay: Cell membrane chromatography
Format: binding
Conditions: capacity factor k′; reflects potential cardiac toxicity; k′ < 0 labeled as 0

NaV1.5, sequence (Q14524 whole entry): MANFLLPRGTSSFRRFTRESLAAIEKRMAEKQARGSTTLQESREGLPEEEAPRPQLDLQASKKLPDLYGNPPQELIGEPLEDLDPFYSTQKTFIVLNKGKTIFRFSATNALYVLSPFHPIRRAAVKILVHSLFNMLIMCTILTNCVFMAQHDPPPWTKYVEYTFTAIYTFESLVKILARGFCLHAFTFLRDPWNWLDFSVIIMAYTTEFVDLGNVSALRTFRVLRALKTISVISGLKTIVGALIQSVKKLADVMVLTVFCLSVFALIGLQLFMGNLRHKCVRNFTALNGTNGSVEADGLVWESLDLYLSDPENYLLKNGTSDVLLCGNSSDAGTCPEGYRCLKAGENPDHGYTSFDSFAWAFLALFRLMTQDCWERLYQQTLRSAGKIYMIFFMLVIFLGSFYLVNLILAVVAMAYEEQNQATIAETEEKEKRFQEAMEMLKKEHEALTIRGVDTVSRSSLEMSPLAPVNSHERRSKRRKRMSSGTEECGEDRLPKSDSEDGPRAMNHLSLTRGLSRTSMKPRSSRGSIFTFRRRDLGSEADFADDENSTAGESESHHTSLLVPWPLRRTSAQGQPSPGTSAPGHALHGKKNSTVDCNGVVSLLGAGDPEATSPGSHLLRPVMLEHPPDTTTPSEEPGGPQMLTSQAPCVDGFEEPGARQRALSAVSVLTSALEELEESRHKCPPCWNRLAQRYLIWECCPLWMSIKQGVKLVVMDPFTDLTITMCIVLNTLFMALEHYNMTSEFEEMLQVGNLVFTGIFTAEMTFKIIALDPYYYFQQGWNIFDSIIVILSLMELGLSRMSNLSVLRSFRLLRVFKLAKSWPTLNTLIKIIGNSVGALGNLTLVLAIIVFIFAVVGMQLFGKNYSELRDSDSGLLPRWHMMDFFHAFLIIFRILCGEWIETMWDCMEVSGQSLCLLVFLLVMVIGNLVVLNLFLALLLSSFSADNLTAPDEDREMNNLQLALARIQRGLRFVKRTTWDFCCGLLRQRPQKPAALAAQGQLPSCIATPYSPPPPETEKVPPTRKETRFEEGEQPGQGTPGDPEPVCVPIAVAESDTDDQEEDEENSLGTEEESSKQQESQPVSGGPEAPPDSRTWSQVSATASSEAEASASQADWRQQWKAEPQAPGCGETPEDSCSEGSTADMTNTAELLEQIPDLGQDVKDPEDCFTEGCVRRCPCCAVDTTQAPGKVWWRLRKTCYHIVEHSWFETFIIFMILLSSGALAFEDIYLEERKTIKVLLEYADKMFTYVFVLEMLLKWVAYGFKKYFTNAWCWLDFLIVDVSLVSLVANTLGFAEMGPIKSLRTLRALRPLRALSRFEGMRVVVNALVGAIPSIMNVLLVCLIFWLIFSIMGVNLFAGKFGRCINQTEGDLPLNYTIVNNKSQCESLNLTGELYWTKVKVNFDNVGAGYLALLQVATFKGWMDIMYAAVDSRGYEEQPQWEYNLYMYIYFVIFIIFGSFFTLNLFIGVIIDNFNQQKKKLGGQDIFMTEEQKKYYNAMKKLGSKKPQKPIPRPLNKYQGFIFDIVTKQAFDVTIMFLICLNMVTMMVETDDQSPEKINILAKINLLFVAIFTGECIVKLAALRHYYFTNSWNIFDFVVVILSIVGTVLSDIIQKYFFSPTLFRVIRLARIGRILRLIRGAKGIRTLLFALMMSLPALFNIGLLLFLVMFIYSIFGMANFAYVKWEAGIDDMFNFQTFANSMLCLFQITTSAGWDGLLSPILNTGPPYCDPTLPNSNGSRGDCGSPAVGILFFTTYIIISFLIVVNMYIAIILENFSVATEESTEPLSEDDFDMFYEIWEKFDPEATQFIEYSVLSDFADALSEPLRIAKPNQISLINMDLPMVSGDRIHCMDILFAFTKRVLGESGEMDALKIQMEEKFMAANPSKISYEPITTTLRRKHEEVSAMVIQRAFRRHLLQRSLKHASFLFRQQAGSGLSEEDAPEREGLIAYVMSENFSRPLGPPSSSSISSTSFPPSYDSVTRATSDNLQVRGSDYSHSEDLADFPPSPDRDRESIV

SMILES | k′ NaV1.5
CCCCOC(=O)c1scc(C)c1NC(=O)C(C)NCCC (stereo not shown) [AT-29, Butyl 4-methyl-3-(2-(propylamino)propanamido)thiophene-2-carboxylate] | 35
CCCNC(C)C(=O)Nc1c(C)csc1C(=O)OCC(C)C (stereo not shown) [AT-30, Isobutyl 4-methyl-3-(2-(propylamino)propanamido)thiophene-2-carboxylate] | 105.4
CCN(CCO)C(C)C(=O)Nc1c(C)csc1C(=O)OC (stereo not shown) [AT-24, Methyl 3-(2-(ethyl(2-hydroxyethyl)amino)propanamido)-4-methylthiophene-2-carboxylate] | 27.6
COC(=O)c1scc(C)c1NC(=O)C(C)NCCN1CCOCC1 (stereo not shown) [AT-26, Methyl 4-methyl-3-(2-((2-morpholinoethyl)amino)propanamido)thiophene-2-carboxylate] | 72.4
COC(=O)c1scc(C)c1NC(=O)C(C)N1CC(C)CC(C)C1 (stereo not shown) [AT-4, Methyl 3-(2-(3,5-dimethylpiperidin-1-yl)propanamido)-4-methylthiophene-2-carboxylate] | 71.2
COC(=O)c1scc(C)c1NC(=O)C(C)N1CCOCC1C (stereo not shown) [AT-6, Methyl 4-methyl-3-(2-(3-methylmorpholino)propanamido)thiophene-2-carboxylate] | 28
CCCNC(C)C(=O)Nc1c(C)csc1C(=O)OCC (stereo not shown) [AT-27, Ethyl 4-methyl-3-(2-(propylamino)propanamido)thiophene-2-carboxylate] | 0.6
CCCNC(C)C(=O)Nc1c(C)csc1C(=O)OCCC (stereo not shown) [AT-28, Propyl 4-methyl-3-(2-(propylamino)propanamido)thiophene-2-carboxylate] | 38
COC(=O)c1scc(C)c1NC(=O)C(C)N1CCN(CCO)CC1 (stereo not shown) [AT-19, Methyl 3-(2-(4-(2-hydroxyethyl)piperazin-1-yl)propanamido)-4-methylthiophene-2-carboxylate] | 92
COCCN(CCOC)C(C)C(=O)Nc1c(C)csc1C(=O)OC (stereo not shown) [AT-23, Methyl 3-(2-(bis(2-methoxyethyl)amino)propanamido)-4-methylthiophene-2-carboxylate] | 43.6
COC(=O)c1scc(C)c1NC(=O)C(C)N1CCOCC1 (stereo not shown) [AT-5, Methyl 4-methyl-3-(2-morpholinopropanamido)thiophene-2-carboxylate] | 18.4
COC(=O)c1scc(C)c1NC(=O)C(C)N1CCN(c2ccccc2)CC1 (stereo not shown) [AT-18, Methyl 4-methyl-3-(2-(4-phenylpiperazin-1-yl)propanamido)thiophene-2-carboxylate] | 57.8
CCN1CCN(C(C)C(=O)Nc2c(C)csc2C(=O)OC)CC1 (stereo not shown) [AT-12, Methyl 3-(2-(4-ethylpiperazin-1-yl)propanamido)-4-methylthiophene-2-carboxylate] | 1.2
COC(=O)c1scc(C)c1NC(=O)C(C)N1CCSCC1 (stereo not shown) [AT-9, Methyl 4-methyl-3-(2-thiomorpholinopropanamido)thiophene-2-carboxylate] | 48.6
CCCN1CCN(C(C)C(=O)Nc2c(C)csc2C(=O)OC)CC1 (stereo not shown) [AT-16, Methyl 4-methyl-3-(2-(4-propylpiperazin-1-yl)propanamido)thiophene-2-carboxylate] | 42.4
COC(=O)c1scc(C)c1NC(=O)C(C)N1CCCCC1 (stereo not shown) [AT-3, Methyl 4-methyl-3-(2-(piperidin-1-yl)propanamido)thiophene-2-carboxylate] | 1.1
COC(=O)c1scc(C)c1NC(=O)C(C)N1CCS(=O)(=O)CC1 (stereo not shown) [AT-10, Methyl 3-(2-(1,1-dioxidothiomorpholino)propanamido)-4-methylthiophene-2-carboxylate] | 0
COC(=O)c1scc(C)c1NC(=O)C(C)N(CCO)CCO (stereo not shown) [AT-25, Methyl 3-(2-(bis(2-hydroxyethyl)amino)propanamido)-4-methylthiophene-2-carboxylate] | 12.1
COC(=O)c1scc(C)c1NC(=O)C(C)N1C(C)COCC1C (stereo not shown) [AT-7, Methyl 3-(2-(3,5-dimethylmorpholino)propanamido)-4-methylthiophene-2-carboxylate] | 24
